Measured values reported in the supplement of paper PMC8612539.
Converted amounts (≈) assume the structure as drawn.

Test system: Escherichia coli
Assay: minimum inhibitory concentration (MIC)
Experimental: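 Broth microdilution MIC (Sensititre BOPO7F bovine plate, CLSI methods) of 19 antimicrobials against field isolates of P. multocida, M. haemolytica, H. somni (deep nasopharyngeal swabs) and E. coli, Enterococcus spp. (rectal swabs) from weaned dairy heifers. Incubation 16-24 h at 35 C. MIC is the lowest concentration preventing visible growth. Values with <= or > lie at the tested range limits. Trimethoprim-sulfamethoxazole is given as the trimethoprim component of a 1:19 mixture.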

## CCCN1C[C@H](C)[C@@H](O)[C@](C)(O)[C@@H](CC)OC(=O)[C@H](C)[C@@H](O[C@H]2C[C@@](C)(OC)[C@@H](O)[C@H](C)O2)[C@H](C)[C@@H](O[C@@H]2O[C@H](C)C[C@H](N(C)C)[C@H]2O)[C@](C)(O)C[C@H]1C [Gamithromycin]
Isolate (source animal id): 8
  minimum inhibitory concentration: 8 µg/mL (≈ 10.3 µM)
Isolate (source animal id): 9
  minimum inhibitory concentration: > 8 µg/mL
Isolate (source animal id): 10
  minimum inhibitory concentration: 8 µg/mL (≈ 10.3 µM)
Isolate (source animal id): 11
  minimum inhibitory concentration: 8 µg/mL (≈ 10.3 µM)
Isolate (source animal id): 12
  minimum inhibitory concentration: 8 µg/mL (≈ 10.3 µM)
Isolate (source animal id): 13
  minimum inhibitory concentration: 8 µg/mL (≈ 10.3 µM)
Isolate (source animal id): 14
  minimum inhibitory concentration: > 8 µg/mL
Isolate (source animal id): 15
  minimum inhibitory concentration: 4 µg/mL (≈ 5.15 µM)
Isolate (source animal id): 16
  minimum inhibitory concentration: 8 µg/mL (≈ 10.3 µM)
Isolate (source animal id): 98
  minimum inhibitory concentration: 8 µg/mL (≈ 10.3 µM)
Isolate (source animal id): 99
  minimum inhibitory concentration: 8 µg/mL (≈ 10.3 µM)
Isolate (source animal id): 100
  minimum inhibitory concentration: 4 µg/mL (≈ 5.15 µM)
Isolate (source animal id): 101
  minimum inhibitory concentration: 8 µg/mL (≈ 10.3 µM)
Isolate (source animal id): 102
  minimum inhibitory concentration: 8 µg/mL (≈ 10.3 µM)
Isolate (source animal id): 103
  minimum inhibitory concentration: 8 µg/mL (≈ 10.3 µM)
Isolate (source animal id): 104
  minimum inhibitory concentration: 8 µg/mL (≈ 10.3 µM)
Isolate (source animal id): 105
  minimum inhibitory concentration: 8 µg/mL (≈ 10.3 µM)
Isolate (source animal id): 106
  minimum inhibitory concentration: > 8 µg/mL
Isolate (source animal id): 107
  minimum inhibitory concentration: 8 µg/mL (≈ 10.3 µM)
Isolate (source animal id): 108
  minimum inhibitory concentration: 8 µg/mL (≈ 10.3 µM)
Isolate (source animal id): 109
  minimum inhibitory concentration: 8 µg/mL (≈ 10.3 µM)
Isolate (source animal id): 110
  minimum inhibitory concentration: 4 µg/mL (≈ 5.15 µM)
Isolate (source animal id): 111
  minimum inhibitory concentration: 4 µg/mL (≈ 5.15 µM)
Isolate (source animal id): 112
  minimum inhibitory concentration: 8 µg/mL (≈ 10.3 µM)
Isolate (source animal id): 113
  minimum inhibitory concentration: 4 µg/mL (≈ 5.15 µM)
Isolate (source animal id): 114
  minimum inhibitory concentration: 8 µg/mL (≈ 10.3 µM)
Isolate (source animal id): 115
  minimum inhibitory concentration: > 8 µg/mL
Isolate (source animal id): 116
  minimum inhibitory concentration: 4 µg/mL (≈ 5.15 µM)
Isolate (source animal id): 117
  minimum inhibitory concentration: > 8 µg/mL
Isolate (source animal id): 118
  minimum inhibitory concentration: 8 µg/mL (≈ 10.3 µM)
Isolate (source animal id): 119
  minimum inhibitory concentration: > 8 µg/mL
Isolate (source animal id): 120
  minimum inhibitory concentration: > 8 µg/mL
Isolate (source animal id): 121
  minimum inhibitory concentration: 8 µg/mL (≈ 10.3 µM)
Isolate (source animal id): 122
  minimum inhibitory concentration: 8 µg/mL (≈ 10.3 µM)
Isolate (source animal id): 123
  minimum inhibitory concentration: 8 µg/mL (≈ 10.3 µM)
Isolate (source animal id): 124
  minimum inhibitory concentration: > 8 µg/mL
Isolate (source animal id): 125
  minimum inhibitory concentration: ≤ 1 µg/mL
Isolate (source animal id): 126
  minimum inhibitory concentration: > 8 µg/mL
Isolate (source animal id): 127
  minimum inhibitory concentration: 8 µg/mL (≈ 10.3 µM)
Isolate (source animal id): 128
  minimum inhibitory concentration: 4 µg/mL (≈ 5.15 µM)
Isolate (source animal id): 129
  minimum inhibitory concentration: 4 µg/mL (≈ 5.15 µM)
Isolate (source animal id): 130
  minimum inhibitory concentration: 4 µg/mL (≈ 5.15 µM)
Isolate (source animal id): 131
  minimum inhibitory concentration: 4 µg/mL (≈ 5.15 µM)
Isolate (source animal id): 132
  minimum inhibitory concentration: 8 µg/mL (≈ 10.3 µM)
Isolate (source animal id): 133
  minimum inhibitory concentration: 8 µg/mL (≈ 10.3 µM)
Isolate (source animal id): 134
  minimum inhibitory concentration: 8 µg/mL (≈ 10.3 µM)
Isolate (source animal id): 135
  minimum inhibitory concentration: 8 µg/mL (≈ 10.3 µM)
Isolate (source animal id): 136
  minimum inhibitory concentration: 8 µg/mL (≈ 10.3 µM)
Isolate (source animal id): 137
  minimum inhibitory concentration: 8 µg/mL (≈ 10.3 µM)
Isolate (source animal id): 138
  minimum inhibitory concentration: > 8 µg/mL
Isolate (source animal id): 139
  minimum inhibitory concentration: > 8 µg/mL
Isolate (source animal id): 140
  minimum inhibitory concentration: 8 µg/mL (≈ 10.3 µM)
Isolate (source animal id): 141
  minimum inhibitory concentration: > 8 µg/mL
Isolate (source animal id): 142
  minimum inhibitory concentration: 8 µg/mL (≈ 10.3 µM)
Isolate (source animal id): 143
  minimum inhibitory concentration: > 8 µg/mL
Isolate (source animal id): 144
  minimum inhibitory concentration: > 8 µg/mL
Isolate (source animal id): 145
  minimum inhibitory concentration: > 8 µg/mL
Isolate (source animal id): 146
  minimum inhibitory concentration: 8 µg/mL (≈ 10.3 µM)
Isolate (source animal id): 147
  minimum inhibitory concentration: > 8 µg/mL
Isolate (source animal id): 148
  minimum inhibitory concentration: 8 µg/mL (≈ 10.3 µM)
Isolate (source animal id): 149
  minimum inhibitory concentration: 8 µg/mL (≈ 10.3 µM)
Isolate (source animal id): 150
  minimum inhibitory concentration: > 8 µg/mL
Isolate (source animal id): 151
  minimum inhibitory concentration: 8 µg/mL (≈ 10.3 µM)
Isolate (source animal id): 152
  minimum inhibitory concentration: 4 µg/mL (≈ 5.15 µM)
Isolate (source animal id): 153
  minimum inhibitory concentration: 8 µg/mL (≈ 10.3 µM)
Isolate (source animal id): 154
  minimum inhibitory concentration: 8 µg/mL (≈ 10.3 µM)
Isolate (source animal id): 155
  minimum inhibitory concentration: 4 µg/mL (≈ 5.15 µM)
Isolate (source animal id): 156
  minimum inhibitory concentration: > 8 µg/mL
Isolate (source animal id): 157
  minimum inhibitory concentration: 8 µg/mL (≈ 10.3 µM)
Isolate (source animal id): 158
  minimum inhibitory concentration: 8 µg/mL (≈ 10.3 µM)
Isolate (source animal id): 159
  minimum inhibitory concentration: 4 µg/mL (≈ 5.15 µM)
Isolate (source animal id): 160
  minimum inhibitory concentration: > 8 µg/mL
Isolate (source animal id): 161
  minimum inhibitory concentration: > 8 µg/mL
Isolate (source animal id): 162
  minimum inhibitory concentration: 8 µg/mL (≈ 10.3 µM)
Isolate (source animal id): 163
  minimum inhibitory concentration: 8 µg/mL (≈ 10.3 µM)
Isolate (source animal id): 164
  minimum inhibitory concentration: 8 µg/mL (≈ 10.3 µM)
Isolate (source animal id): 165
  minimum inhibitory concentration: 8 µg/mL (≈ 10.3 µM)
Isolate (source animal id): 166
  minimum inhibitory concentration: 4 µg/mL (≈ 5.15 µM)
Isolate (source animal id): 167
  minimum inhibitory concentration: 8 µg/mL (≈ 10.3 µM)
Isolate (source animal id): 168
  minimum inhibitory concentration: 8 µg/mL (≈ 10.3 µM)
Isolate (source animal id): 169
  minimum inhibitory concentration: 8 µg/mL (≈ 10.3 µM)
Isolate (source animal id): 170
  minimum inhibitory concentration: 8 µg/mL (≈ 10.3 µM)
Isolate (source animal id): 171
  minimum inhibitory concentration: 8 µg/mL (≈ 10.3 µM)
Isolate (source animal id): 172
  minimum inhibitory concentration: 8 µg/mL (≈ 10.3 µM)
Isolate (source animal id): 173
  minimum inhibitory concentration: 4 µg/mL (≈ 5.15 µM)
Isolate (source animal id): 174
  minimum inhibitory concentration: 8 µg/mL (≈ 10.3 µM)
Isolate (source animal id): 175
  minimum inhibitory concentration: 8 µg/mL (≈ 10.3 µM)
Isolate (source animal id): 176
  minimum inhibitory concentration: 8 µg/mL (≈ 10.3 µM)
Isolate (source animal id): 177
  minimum inhibitory concentration: 8 µg/mL (≈ 10.3 µM)
Isolate (source animal id): 178
  minimum inhibitory concentration: 8 µg/mL (≈ 10.3 µM)
Isolate (source animal id): 179
  minimum inhibitory concentration: 8 µg/mL (≈ 10.3 µM)
Isolate (source animal id): 180
  minimum inhibitory concentration: 8 µg/mL (≈ 10.3 µM)
Isolate (source animal id): 181
  minimum inhibitory concentration: > 8 µg/mL
Isolate (source animal id): 182
  minimum inhibitory concentration: 8 µg/mL (≈ 10.3 µM)
Isolate (source animal id): 183
  minimum inhibitory concentration: 8 µg/mL (≈ 10.3 µM)
Isolate (source animal id): 184
  minimum inhibitory concentration: 8 µg/mL (≈ 10.3 µM)
Isolate (source animal id): 185
  minimum inhibitory concentration: 8 µg/mL (≈ 10.3 µM)
Isolate (source animal id): 186
  minimum inhibitory concentration: 8 µg/mL (≈ 10.3 µM)
Isolate (source animal id): 187
  minimum inhibitory concentration: 4 µg/mL (≈ 5.15 µM)
Isolate (source animal id): 188
  minimum inhibitory concentration: 2 µg/mL (≈ 2.57 µM)
